Read-outs that look alike come from different tables or passages of the source.
What was measured:
Assay type in all cases: in vivo
[1] = tested on: Yellow Fever Mosquito (Aedes aegypti, AEDSAE); conditions: Yellow Fever Mosquito; for YFM: rating class; for YFM rating: Table ABC / ABC-DP rating
Summary of the method: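 Compounds from DMSO master plates (4000 ppm stock) diluted in 90:10 water/acetone, then dispensed into six replicate plates and infested with ~1-day-old Aedes aegypti larvae in liver-powder water. Held covered at room temperature for 3 days; each well scored for larval mortality and graded on a rating scale.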

[2] = tested on: Beet Armyworm (Spodoptera exigua, LAPHEG); test: Bioassays on Beet Armyworm (BAW), 128-well diet tray assay; conditions: Spodoptera exigua, Beet Armyworm
Summary of the method: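 Second-instar larvae, one to five per well, were placed on artificial diet surface-treated with 50 μg/cm^2 compound in 90:10 acetone-water, eight wells per treatment. Trays were held 5–7 days at 25 °C, 14:10 light-dark. Percent mortality per well was averaged over eight wells.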

[3] = tested on: Cabbage Looper (Trichoplusia ni, TRIPNI); test: Bioassays on Cabbage Looper (CL), 128-well diet tray assay; conditions: Trichoplusia ni, Cabbage Looper
Summary of the method: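 Diet tray, 2nd instar, 1–5 larvae/well; 50 μg/cm^2 compound surface-applied (acetone:water 90:10), dried; 8 wells/treatment; 25° C, 14:10 L:D, 5–7 d; % mortality, mean of 8 wells.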

[4] = Table ABC / ABC-DP rating, read-out: BAW rating
[5] = Table ABC / ABC-DP rating, read-out: CL rating

Row | Compound | YFM [1] | pest or weed control at 50 µg/cm2 ([2]; rating class, read-out: BAW) [%] | pest or weed control at 50 µg/cm2 ([3]; rating class, read-out: CL) [%] | YFM rating [1] | pest or weed control at 50 µg/cm2 [2, 4] [%] | pest or weed control at 50 µg/cm2 [3, 5] [%]
1 | C#CC(C)C(=O)N(CC)c1c(F)ccc(NC(=O)c2cc(NC(=O)[C@H]3[C@H](c4ccc(F)c(C(F)(F)F)c4)C3(Cl)Cl)ccc2Cl)c1F (stereo partly drawn) [F1764] | A (80–100) | 50 to 100 | 50 to 100 | – | – | –
2 | O=C(COC(F)(F)F)Nc1c(F)ccc(NC(=O)c2cc(NC(=O)[C@H]3[C@H](c4ccc(Cl)c(Cl)c4)C3(Cl)Cl)ccc2Cl)c1F [F1766, 2-Chloro-5-((1R,3R)-2,2-dichloro-3-(3,4-dichlorophenyl)cyclopropane-1-carboxamido)-N-(2,4-difluoro-3-(2-(trifluoromethoxy)acetamido)phenyl)benzamide] | A (80–100) | 50 to 100 | 50 to 100 | – | – | –
3 | CC(OC(F)(F)F)C(=O)Nc1c(F)ccc(NC(=O)c2cc(NC(=O)[C@H]3[C@H](c4ccc(Cl)c(Cl)c4)C3(Cl)Cl)ccc2Cl)c1F (stereo partly drawn) [F1767, 2-Chloro-5-((1R,3R)-2,2-dichloro-3-(3,4-dichlorophenyl)cyclopropane-1-carboxamido)-N-(2,4-difluoro-3-(2-(trifluoromethoxy)propanamido)phenyl)benzamide] | – | – | – | A (80–100) | 50 to 100 | 50 to 100
4 | O=C(COC(F)(F)F)Nc1c(F)ccc(NC(=O)c2cc(NC(=O)[C@H]3[C@H](c4ccc(F)c(Cl)c4)C3(Cl)Cl)ccc2Cl)c1F [F1768, 2-Chloro-5-((1R,3R)-2,2-dichloro-3-(3-chloro-4-fluorophenyl)cyclopropane-1-carboxamido)-N-(2,4-difluoro-3-(2-(trifluoromethoxy)acetamido)phenyl)benzamide] | – | – | – | A (80–100) | 50 to 100 | 50 to 100
5 | CC(OC(F)(F)F)C(=O)Nc1c(F)ccc(NC(=O)c2cc(NC(=O)[C@H]3[C@H](c4ccc(F)c(Cl)c4)C3(Cl)Cl)ccc2Cl)c1F (stereo partly drawn) [F1769, 2-Chloro-5-((1R,3R)-2,2-dichloro-3-(3-chloro-4-fluorophenyl)cyclopropane-1-carboxamido)-N-(2,4-difluoro-3-(2-(trifluoromethoxy)propanamido)phenyl)benzamide] | – | – | – | A (80–100) | 50 to 100 | 50 to 100
6 | CC(OC(F)(F)F)C(=O)Nc1c(F)ccc(NC(=O)c2cc(NC(=O)[C@H]3[C@H](c4ccc(F)c(C(F)(F)F)c4)C3(Cl)Cl)ccc2Cl)c1F (stereo partly drawn) [F1771, 2-Chloro-5-((1R,3R)-2,2-dichloro-3-(4-fluoro-3-(trifluoromethyl)phenyl)cyclopropane-1-carboxamido)-N-(2,4-difluoro-3-(2-(trifluoromethoxy)propanamido)phenyl)benzamide] | – | – | – | A (80–100) | 50 to 100 | 50 to 100
7 | O=C(COC(F)(F)F)Nc1c(F)ccc(NC(=O)c2cc(NC(=O)[C@H]3[C@H](c4cccc(C(F)(F)F)c4)C3(Cl)Cl)ccc2Cl)c1F [F1774, 2-Chloro-5-((1R,3R)-2,2-dichloro-3-(3-(trifluoromethyl)phenyl)cyclopropane-1-carboxamido)-N-(2,4-difluoro-3-(2-(trifluoromethoxy)acetamido)phenyl)benzamide] | – | – | – | A (80–100) | 50 to 100 | 50 to 100
8 | CC(OC(F)(F)F)C(=O)Nc1c(F)ccc(NC(=O)c2cc(NC(=O)[C@H]3[C@H](c4cccc(C(F)(F)F)c4)C3(Cl)Cl)ccc2Cl)c1F (stereo partly drawn) [F1775, 2-Chloro-5-((1R,3R)-2,2-dichloro-3-(3-(trifluoromethyl)phenyl)cyclopropane-1-carboxamido)-N-(2,4-difluoro-3-(2-(trifluoromethoxy)propanamido)phenyl)benzamide] | – | – | – | A (80–100) | 50 to 100 | 50 to 100
9 | CC(C)(C)OC(=O)N(C(=O)OC(C)(C)C)c1c(F)ccc(NC(=O)c2cc(NC(=O)[C@H]3[C@H](c4ccc(F)c(Br)c4)C3(Cl)Cl)ccc2Cl)c1F [F1776, tert-Butyl N-[3-[[5-[[(1R,3R)-3-(3-bromo-4-fluoro-phenyl)-2,2-dichloro-cyclopropanecarbonyl]amino]-2-chloro-benzoyl]amino]-2,6-difluoro-phenyl]-N-tert-butoxycarbonyl-carbamate] | – | – | – | A (80–100) | 50 to 100 | 50 to 100
10 | O=C(COC(F)(F)F)Nc1c(F)ccc(NC(=O)c2cc(NC(=O)[C@H]3[C@H](c4ccc(F)c(Br)c4)C3(Cl)Cl)ccc2Cl)c1F [F1780, 5-((1R,3R)-3-(3-Bromo-4-fluorophenyl)-2,2-dichlorocyclopropane-1-carboxamido)-2-chloro-N-(2,4-difluoro-3-(2-(trifluoromethoxy)acetamido)phenyl)benzamide] | – | – | – | A (80–100) | 50 to 100 | 50 to 100
11 | CC(OC(F)(F)F)C(=O)Nc1c(F)ccc(NC(=O)c2cc(NC(=O)[C@H]3[C@H](c4ccc(F)c(Br)c4)C3(Cl)Cl)ccc2Cl)c1F (stereo partly drawn) [F1781, 5-((1R,3R)-3-(3-Bromo-4-fluorophenyl)-2,2-dichlorocyclopropane-1-carboxamido)-2-chloro-N-(2,4-difluoro-3-(2-(trifluoromethoxy)propanamido)phenyl)benzamide] | – | – | – | A (80–100) | 50 to 100 | 50 to 100
12 | O=C(Nc1ccc(F)c(NC(=O)C2(F)OC(F)(F)C(F)(F)C2(F)F)c1F)c1cc(NC(=O)[C@H]2[C@H](c3ccc(F)c(C(F)(F)F)c3)C2(Cl)Cl)ccc1Cl (stereo partly drawn) [F1782, N-(3-(2-Chloro-5-((1R,3R)-2,2-dichloro-3-(4-fluoro-3-(trifluoromethyl)phenyl)cyclopropane-1-carboxamido)benzamido)-2,6-difluorophenyl)-2,3,3,4,4,5,5-heptafluorotetrahydrofuran-2-carboxamide] | – | – | – | A (80–100) | 50 to 100 | 50 to 100
13 | CCN(C(=O)COC(F)(F)F)c1c(F)ccc(NC(=O)c2cc(NC(=O)[C@H]3[C@H](c4ccc(F)c(C(F)(F)F)c4)C3(Cl)Cl)ccc2Cl)c1F [F1789, 2-Chloro-5-((1R,3R)-2,2-dichloro-3-(4-fluoro-3-(trifluoromethyl)phenyl)cyclopropane-1-carboxamido)-N-(3-(N-ethyl-2-(trifluoromethoxy)acetamido)-2,4-difluorophenyl)benzamide] | – | – | – | A (80–100) | 50 to 100 | 50 to 100
14 | O=C(COC(F)F)Nc1c(F)ccc(NC(=O)c2cc(NC(=O)[C@H]3[C@H](c4ccc(F)c(C(F)(F)F)c4)C3(Cl)Cl)ccc2Cl)c1F [F1790, 2-Chloro-5-((1R,3R)-2,2-dichloro-3-(4-fluoro-3-(trifluoromethyl)phenyl)cyclopropane-1-carboxamido)-N-(3-(2-(difluoromethoxy)acetamido)-2,4-difluorophenyl)benzamide] | – | – | – | A (80–100) | 50 to 100 | 50 to 100
15 | CN(C(=O)c1cc(NC(=O)[C@H]2[C@H](c3ccc(Cl)c(Cl)c3)C2(Cl)Cl)ccc1Cl)c1ccc(F)c(NC(=O)C(F)(F)F)c1F [F1792, 2-Chloro-5-((1R,3R)-2,2-dichloro-3-(3,4-dichlorophenyl)cyclopropane-1-carboxamido)-N-(2,4-difluoro-3-(2,2,2-trifluoroacetamido)phenyl)-N-methylbenzamide] | – | – | – | A (80–100) | 50 to 100 | 50 to 100
16 | CN(C(=O)c1cc(NC(=O)[C@H]2[C@H](c3ccc(Cl)c(Cl)c3)C2(Cl)Cl)ccc1Cl)c1ccc(F)c(NC(=O)COC(F)(F)F)c1F [F1793, 2-Chloro-5-((1R,3R)-2,2-dichloro-3-(3,4-dichlorophenyl)cyclopropane-1-carboxamido)-N-(2,4-difluoro-3-(2-(trifluoromethoxy)acetamido)phenyl)-N-methylbenzamide] | – | – | – | A (80–100) | 50 to 100 | 50 to 100
17 | CCOC(C)C(=O)Nc1c(F)ccc(N(C)C(=O)c2cc(NC(=O)[C@H]3[C@H](c4ccc(Cl)c(Cl)c4)C3(Cl)Cl)ccc2Cl)c1F (stereo partly drawn) [F1794, 2-Chloro-5-((1R,3R)-2,2-dichloro-3-(3,4-dichlorophenyl)cyclopropane-1-carboxamido)-N-(3-(2-ethoxypropanamido)-2,4-difluorophenyl)-N-methylbenzamide] | – | – | – | B (More than 0 – Less than 80) | 50 to 100 | 50 to 100
18 | CN(C(=O)c1cc(NC(=O)[C@H]2[C@H](c3ccc(F)c(C(F)(F)F)c3)C2(Cl)Cl)ccc1Cl)c1ccc(F)c(NC(=O)C(F)(F)F)c1F [F1795, 2-Chloro-5-((1R,3R)-2,2-dichloro-3-(4-fluoro-3-(trifluoromethyl)phenyl)cyclopropane-1-carboxamido)-N-(2,4-difluoro-3-(2,2,2-trifluoroacetamido)phenyl)-N-methylbenzamide] | – | – | – | A (80–100) | 50 to 100 | 50 to 100
